2 compounds from patent US10570131B2, “Heterocyclic compounds and their use in preventing or treating bacterial infections” (MUTABILIS, priority 2015, dated 2020) can be followed below.

As usually defined, the IC50 is the concentration that inhibits the measured activity by half. Low readings indicate greater potency, high ones weaker potency.

For assay [1], the system named is E. coli 190317. In words: MIC of ceftazidime alone and in combination with compounds (synergy), broth microdilution. The format is cell-based. As to conditions: MIC of ceftazidime with compound fixed at 4 μg/mL; strain 190317 (TEM-1, SHV-12, CTX-M-15, OXA-1).
In the next assay the target is T1, AmpC (PAE) (Pseudomonas aeruginosa, UniProt P24735).
T1 construct: made in house; host or cells: E. coli expression vector
As to the kind of experiment: biochemical. On the set-up: species or system P. aeruginosa. On the procedure:
(§1) Method 1: β-lactamase Inhibitory Activity, Determination of IC50 (Table 1)
(§2) Enzyme activity was monitored by spectrophotometric measurement of nitrocefin (NCF—TOKU-E, N005) hydrolysis at 485 nm, at room temperature and in assay buffer A: 100 mM Phosphate pH7, 2% glycerol and 0.1 mg/mL Bovine serum albumin (Sigma, B4287). Enzymes were cloned in E. coli expression vector, expressed and purified in house using classical procedures. To a transparent polystyrene plate (Corning, 3628) were added in each well 5 μL DMSO or inhibitor dilutions in DMSO and 80 μL enzyme in buffer A. Plates were immediately read at 485 nm in a microplate spectrophotometer (BioTek, PowerWave HT) to enable background subtraction. After 30 min of pre-incubation at room temperature, 15 μL of NCF (200 μM final) were finally added in each well. Final enzyme concentrations were 0.1 nM (TEM-1), 0.075 nM (SHV-1), 0.4 nM (CTX-M-15), 1 nM (KPC-2), 0.2 nM (P99 AmpC), 0.2 nM (CMY-37), 0.4 nM (AmpC P. aeruginosa), 0.2 nM (OXA-1), 1.2 nM (OXA-11), 0.4 nM (OXA-15) and 0.3 nM (OXA-48). After 20 min incubation at room temperature, plates were once again read at 485 nm. Enzyme activity was obtained by subtracting the final signal by the background, and was converted to enzyme inhibition using non inhibited wells. IC50 curves were fitted to a classical Langmuir equilibrium model with Hill slope using XLFIT (IDBS).

Assay [2] deals with P. aeruginosa CIP107051. In words: MIC of ceftazidime alone and in combination with compounds (synergy), broth microdilution. As to conditions: MIC of ceftazidime with compound fixed at 4 μg/mL; strain CIP107051 (TEM-24). Type of assay: cell-based. On the procedure:
(§3) Compounds of the present invention were assessed against genotyped bacterial strains alone or in combination with the β-lactam ceftazidime (CAZ). […] Briefly, compounds alone according to the invention were prepared in DMSO and spotted (2 μL each) on sterile polystyrene plates (Corning, 3788). […] Log phase bacterial suspensions were adjusted to a final density of 5×10^5 cfu/mL in cation-adjusted Mueller-Hinton broth (Becton-Dickinson) and added to each well (98 μL). Microplates were incubated for 16-20 h at 35° C. in ambient air. The MIC of the compounds was defined as the lowest concentration of said compounds that prevented bacterial growth as read by visual inspection.
Background: Dilution methods test growth across graded concentrations, often in twofold steps.

Assay [3] deals with K. pneumoniae 6299. The assay is described as above. The format is cell-based. Particulars: MIC of ceftazidime with compound fixed at 4 μg/mL; strain 6299 (TEM-1, SHV-11, OXA-163). As for the experimental part:
as §3

The subject of assay [4] is P. aeruginosa CIP105250. The assay is described as above. The format is cell-based. As to conditions: MIC of ceftazidime with compound fixed at 4 μg/mL; strain CIP105250 (OXA-15). On the procedure:
as §3

For assay [5], the system named is K. pneumoniae BAA-1898. The description is as above. As to conditions: MIC of ceftazidime with compound fixed at 4 μg/mL; strain BAA-1898 (TEM-1, SHV-11, SHV-12, KPC-2). The format is cell-based. On the procedure:
as §3

The test system of assay [6] is K. pneumoniae 6299. As to the kind of experiment: microbe, parasite or virus in culture. Type of assay: cell-based. Particulars: Klebsiella pneumoniae, 6299, read-out: MIC compounds of the invention alone. On the procedure:
as §3

In the next assay the test system is E. coli 131119. In words: microbe, parasite or virus in culture. Type of assay: cell-based. Particulars: Escherichia coli, 131119, read-out: MIC compounds of the invention alone. On the procedure:
as §3

Assay [7] deals with P. aeruginosa CIP105250. As to the kind of experiment: microbe, parasite or virus in culture. The format is cell-based. As to conditions: Pseudomonas aeruginosa, CIP105250, read-out: MIC compounds of the invention alone. As for the experimental part:
as §3

Assay [8] has as its system K. pneumoniae BAA-1898. In words: microbe, parasite or virus in culture. The format is cell-based. As to conditions: Klebsiella pneumoniae, BAA1898, read-out: MIC compounds of the invention alone. As for the experimental part:
as §3

The test system of assay [9] is E. cloacae P99. In words: MIC of compounds alone, broth microdilution. Particulars: Enterobacter cloacae; strain P99 (AmpC); read-out: MIC compounds of the invention alone. The format is cell-based. As for the experimental part:
as §3

Assay [10] relates to P. aeruginosa CIP107051. As to the kind of experiment: MIC of compounds alone, broth microdilution. Type of assay: cell-based. Particulars: Pseudomonas aeruginosa; strain CIP107051 (TEM-24); read-out: MIC compounds of the invention alone. As for the experimental part: as §3
A further assay has as its system E. coli RGN238. As to the kind of experiment: MIC of compounds alone, broth microdilution. The format is cell-based. As to conditions: Escherichia coli, RGN238, read-out: MIC compounds of the invention alone. On the procedure: as §3
The subject of assay [11] is E. coli 190317. As to the kind of experiment: MIC of compounds alone, broth microdilution. Type of assay: cell-based. As to conditions: Escherichia coli; strain 190317 (TEM-1, SHV-12, CTX-M-15, OXA-1); read-out: MIC compounds of the invention alone. On the procedure: as §3
The target of a further assay is T2, OXA-15 (Pseudomonas aeruginosa, UniProt Q51574).
T2 construct: made in house; host or cells: E. coli expression vector
As to the kind of experiment: biochemical. As for the experimental part:
as §1, §2

A further assay concerns the target T3, AmpC (P99) (Enterobacter cloacae, UniProt P05364).
T3 construct: made in house; host or cells: E. coli expression vector
As to the kind of experiment: biochemical. On the procedure:
as §1, §2

In another assay the target is T4, SHV-1 (Klebsiella pneumoniae, UniProt P0AD64).
T4 construct: made in house; host or cells: E. coli expression vector
In words: β-lactamase inhibitory activity, IC50 (nitrocefin hydrolysis). The format is biochemical. On the procedure:
as §1, §2

For the next assay, the target named is T5, CTX-M-15 (Escherichia coli, UniProt Q9EXV5).
T5 construct: made in house; host or cells: E. coli expression vector
The assay is described as above. The format is biochemical. On the procedure: as §1, §2

A further assay has as its target T6, OXA-48 (Klebsiella pneumoniae, UniProt Q6XEC0).
T6 construct: made in house; host or cells: E. coli expression vector
Described as above. Type of assay: biochemical. On the procedure:
as §1, §2

A further assay deals with T7, OXA-1 (Escherichia coli, UniProt P13661).
T7 construct: made in house; host or cells: E. coli expression vector
The description is as above. Type of assay: biochemical. As for the experimental part:
as §1, §2

For a further assay, the target named is T8, KPC-2 (Klebsiella pneumoniae, UniProt Q9F663).
T8 construct: made in house; host or cells: E. coli expression vector
The assay is described as above. The format is biochemical. As for the experimental part: as §1, §2

The next assay addresses T9, TEM-1 (Escherichia coli, UniProt P62593).
T9 construct: made in house; host or cells: E. coli expression vector
Described as above. The format is biochemical. As to conditions: class (A); 30 min pre-incubation; NCF 200 μM. As for the experimental part:
as §1, §2

For the next assay, the target named is T10, OXA-11 (Pseudomonas aeruginosa, UniProt Q06778).
T10 construct: made in house; host or cells: E. coli expression vector
Described as above. The format is biochemical. As for the experimental part: as §1, §2

Assay [12] deals with E. cloacae P99. As to the kind of experiment: MIC of ceftazidime alone and in combination with compounds (synergy), broth microdilution. The format is cell-based. Particulars: MIC of ceftazidime with compound fixed at 4 μg/mL; strain P99 (AmpC).

T8 sequence (Q9F663 25-293 limits assumed): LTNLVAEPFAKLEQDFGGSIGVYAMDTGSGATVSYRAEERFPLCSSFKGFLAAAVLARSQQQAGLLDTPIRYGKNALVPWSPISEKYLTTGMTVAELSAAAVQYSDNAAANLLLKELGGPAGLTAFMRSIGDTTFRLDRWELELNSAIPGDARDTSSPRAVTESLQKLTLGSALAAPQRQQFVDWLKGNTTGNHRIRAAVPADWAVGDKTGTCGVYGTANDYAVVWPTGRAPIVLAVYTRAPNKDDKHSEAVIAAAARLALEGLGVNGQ
T7 sequence (P13661 26-276): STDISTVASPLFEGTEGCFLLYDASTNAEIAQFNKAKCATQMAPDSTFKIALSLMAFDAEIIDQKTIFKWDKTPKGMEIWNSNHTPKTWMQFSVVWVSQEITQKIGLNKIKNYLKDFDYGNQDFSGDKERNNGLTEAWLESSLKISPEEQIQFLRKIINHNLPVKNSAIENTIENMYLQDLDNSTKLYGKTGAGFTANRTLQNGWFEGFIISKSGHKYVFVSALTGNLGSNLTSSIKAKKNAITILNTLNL
T1 sequence (P24735 27-397): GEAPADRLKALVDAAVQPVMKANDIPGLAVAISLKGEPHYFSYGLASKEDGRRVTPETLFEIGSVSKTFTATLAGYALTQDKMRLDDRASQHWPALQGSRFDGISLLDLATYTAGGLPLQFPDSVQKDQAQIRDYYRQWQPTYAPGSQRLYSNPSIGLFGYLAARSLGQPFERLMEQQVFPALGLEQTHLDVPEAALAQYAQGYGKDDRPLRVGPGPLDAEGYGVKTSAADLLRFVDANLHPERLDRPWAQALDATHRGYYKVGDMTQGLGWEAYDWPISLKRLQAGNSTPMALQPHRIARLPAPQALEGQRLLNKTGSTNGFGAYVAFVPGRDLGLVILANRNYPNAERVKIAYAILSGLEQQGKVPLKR
T5 sequence (Q9EXV5 entry or part of it): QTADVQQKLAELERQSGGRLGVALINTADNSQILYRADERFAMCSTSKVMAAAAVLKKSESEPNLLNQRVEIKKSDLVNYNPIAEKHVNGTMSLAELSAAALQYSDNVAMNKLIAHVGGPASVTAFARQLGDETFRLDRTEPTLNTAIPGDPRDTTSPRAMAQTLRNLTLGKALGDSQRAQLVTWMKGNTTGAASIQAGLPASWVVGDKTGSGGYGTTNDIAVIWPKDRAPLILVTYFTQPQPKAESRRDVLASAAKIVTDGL
T6 sequence (Q6XEC0 23-265 limits assumed): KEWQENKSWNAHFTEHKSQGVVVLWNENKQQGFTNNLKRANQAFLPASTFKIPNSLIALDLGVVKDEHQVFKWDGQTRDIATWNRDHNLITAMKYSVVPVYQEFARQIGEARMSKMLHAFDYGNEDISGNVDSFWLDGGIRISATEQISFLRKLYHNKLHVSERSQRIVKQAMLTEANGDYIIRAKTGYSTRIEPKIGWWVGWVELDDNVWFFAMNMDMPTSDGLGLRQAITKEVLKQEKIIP
T9 sequence (P62593 24-286 limits assumed): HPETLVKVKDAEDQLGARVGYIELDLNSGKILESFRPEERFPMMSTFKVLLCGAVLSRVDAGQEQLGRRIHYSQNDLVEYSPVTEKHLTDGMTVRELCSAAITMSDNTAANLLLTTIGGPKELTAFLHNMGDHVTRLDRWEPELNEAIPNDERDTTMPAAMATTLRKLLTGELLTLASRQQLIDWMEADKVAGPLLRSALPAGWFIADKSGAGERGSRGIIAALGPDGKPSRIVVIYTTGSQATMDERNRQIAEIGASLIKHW
T4 sequence (P0AD64 22-286): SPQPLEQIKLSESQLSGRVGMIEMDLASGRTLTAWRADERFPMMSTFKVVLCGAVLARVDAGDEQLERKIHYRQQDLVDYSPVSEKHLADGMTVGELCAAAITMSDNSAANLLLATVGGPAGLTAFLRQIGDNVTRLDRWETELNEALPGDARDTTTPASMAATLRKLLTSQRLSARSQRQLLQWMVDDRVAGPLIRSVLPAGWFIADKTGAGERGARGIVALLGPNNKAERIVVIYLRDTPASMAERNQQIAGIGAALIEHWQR
T10 sequence (Q06778 21-266): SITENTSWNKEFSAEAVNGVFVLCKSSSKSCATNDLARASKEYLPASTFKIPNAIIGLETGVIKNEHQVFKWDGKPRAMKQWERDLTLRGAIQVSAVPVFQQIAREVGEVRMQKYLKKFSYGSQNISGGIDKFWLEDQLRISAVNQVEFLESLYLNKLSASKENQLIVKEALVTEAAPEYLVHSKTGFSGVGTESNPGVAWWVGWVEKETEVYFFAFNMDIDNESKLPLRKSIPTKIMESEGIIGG
T3 sequence (P05364 21-381): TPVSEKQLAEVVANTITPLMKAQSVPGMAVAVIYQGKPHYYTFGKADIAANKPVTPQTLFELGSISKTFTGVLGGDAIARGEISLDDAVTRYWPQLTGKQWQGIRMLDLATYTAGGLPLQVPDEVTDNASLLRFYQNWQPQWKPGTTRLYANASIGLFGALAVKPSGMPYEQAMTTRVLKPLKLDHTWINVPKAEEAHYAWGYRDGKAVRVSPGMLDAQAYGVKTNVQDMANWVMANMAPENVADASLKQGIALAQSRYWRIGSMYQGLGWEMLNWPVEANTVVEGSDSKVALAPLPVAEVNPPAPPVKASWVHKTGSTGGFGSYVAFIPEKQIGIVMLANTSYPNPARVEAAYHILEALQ
T2 sequence (Q51574 22-275): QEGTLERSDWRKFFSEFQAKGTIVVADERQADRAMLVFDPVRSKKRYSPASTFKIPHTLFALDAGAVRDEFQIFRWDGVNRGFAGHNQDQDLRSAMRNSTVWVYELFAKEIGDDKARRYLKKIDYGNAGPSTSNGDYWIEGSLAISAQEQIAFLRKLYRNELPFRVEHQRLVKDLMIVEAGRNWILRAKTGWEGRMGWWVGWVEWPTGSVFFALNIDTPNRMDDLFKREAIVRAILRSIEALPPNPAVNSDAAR

Take `CNC(=O)CON=C1C[C@@H](C(=O)OC)N2C[C@@H]1N(OS(=O)(=O)[O-])C2=O.[Na+]` (mixture of isomers) [Example 1, sodium [(2S,5S)-2-methoxycarbonyl-4-[2-(methylamino)-2-oxo-ethoxy]imino-7-oxo-1,6-diazabicyclo[3.2.1]octan-6-yl] sulfate]: the “MIC, combination of CAZ and compounds of the invention at 4 μg/mL” value is 4 µg/mL with E. coli 190317 [1]; 64 µg/mL in the assay with P. aeruginosa CIP107051 [2]; 32 µg/mL with K. pneumoniae 6299 [3]; 64 µg/mL in the assay with P. aeruginosa CIP105250 [4]; 128 µg/mL with K. pneumoniae BAA-1898 [5]; 64 µg/mL in the assay with E. cloacae P99 [12]. Further, the IC50 came to 37 nM at AmpC (PAE); 0.65 nM against OXA-15; 4.1 nM on AmpC (P99); 1.3 nM against SHV-1; 5.4 nM on CTX-M-15; 0.51 nM against OXA-48. Besides, the IC50 on OXA-1 was determined as 80 nM; against KPC-2, 7.8 nM; against TEM-1, 3.2 nM; against OXA-11, 4.1 nM. Besides, the MIC in the assay with K. pneumoniae 6299 [6], in the assay with E. coli 131119, with P. aeruginosa CIP105250 [7], in the assay with K. pneumoniae BAA-1898 [8], in the assay on E. cloacae P99 [9] and with P. aeruginosa CIP107051 [10] was > 32 µg/mL in each case. Also, the MIC with E. coli RGN238 and with E. coli 190317 [11] was > 32 µg/mL throughout.
Take `NC(=O)CON=C1C[C@@H](C(N)=O)N2C[C@@H]1N(OS(=O)(=O)[O-])C2=O.[Na+]` (mixture of isomers) [Example 3, sodium [(2S, 5S)-4-(2-amino-2-oxo-ethoxy)imino-2-carbamoyl-7-oxo-1,6-diazabicyclo[3.2.1]octan-6-yl] sulfate]: the “MIC, combination of CAZ and compounds of the invention at 4 μg/mL” value was ≤0.125 µg/mL with E. coli 190317 [1]; 32 µg/mL in the assay on P. aeruginosa CIP107051 [2]; 4 µg/mL in the assay with K. pneumoniae 6299 [3]; 32 µg/mL in the assay with P. aeruginosa CIP105250 [4]; 64 µg/mL in the assay with K. pneumoniae BAA-1898 [5]; 32 µg/mL in the assay with E. cloacae P99 [12]. Moreover, the IC50 on AmpC (PAE) was determined as 220 nM; on OXA-15, 1.6 nM; on AmpC (P99), 7.4 nM; against SHV-1, 4.6 nM; at CTX-M-15, 2 nM; against OXA-48, 5.7 nM. Moreover, the IC50 came out at 17 nM on OXA-1, 33 nM against KPC-2, 3 nM at TEM-1 and 48 nM on OXA-11. The MIC in the assay on K. pneumoniae 6299 [6], with E. coli 131119, in the assay with P. aeruginosa CIP105250 [7], in the assay on K. pneumoniae BAA-1898 [8], in the assay on E. cloacae P99 [9] and in the assay on P. aeruginosa CIP107051 [10] was > 32 µg/mL each time. In addition, the MIC in the assay on E. coli RGN238 and in the assay with E. coli 190317 [11] was > 32 µg/mL in each case.
